For assay [1], the target named is T1, HIV-1 protease (Human immunodeficiency virus type 1 group M subtype B, UniProt P04585). The experiment in a line: biochemical. The protocol: The HIV protease screening assay is based on fluorescently labeled substrate which can be resolved from nonlabeled cleavage product using special beads coated with streptavidin. The substrate is biotinylated at the amino terminal arginine and fluorescently labeled with fluorescein isothiocynate (FITC) at the carboxyl terminal lysine. […] Substrate ([…] of 0.2 μM), sample (10 μl of desired concentraion), and enzyme (10 μl of 0.1 μM) are added to a 96 well pandex plate. The assay is run in 0.1 M sodium acetate buffer at pH 5.5 in the presence of 1.0 M sodium chloride and 0.05% NP-40 with incubated in the dark for one hour at room temperature. Strepavidin coated polystyrene beads {40 μl of 0.1% (w/v)} are added and the plate is incubated in the dark for an additional half hour. The labeled cleavage product is separated from the unreacted substrate via filtration and is read on the Idexx screen machine. The data are analyzed by appropriate computer algorithms to ascertain percent inhibition values.
Determination of Ki values utilizes the same materials and equipment employed for percent inhibition studies. Two-fold serial dilutions are made for a given inhibitor from 2, 3 or 4 starting concentrations with a total of 24, 36 or 48 individual inhibitor concentrations. These dilutions are performed utilizing the BioMek robotics system. The assay consists of 10 μL of 40 nM HIV-1 protease, 10 μL of the various inhibitor concentrations, and 20 μL of 200 μM substrate (40 μL total). The reaction is allowed to proceed for 90 min at room temperature, terminated with 40 μL of avidin beads and processed (supra vide). An inhibitor with a known K; is run in parallel to verify the validity of the assay. The data is processed utilizing a computer program employing a nonlinear least square analysis of the data to generate the Ki values.

The target of assay [2] is T1, HIV-1 protease. The experiment in a line: biochemical. As to conditions: for inhibition at 0.123 µM / inhibition at 0.37 µM / inhibition at 1.1 µM / inhibition at 3.3 µM / inhibition at 10 µM / inhibition at 30 µM: read-out: Protease % Inhib. As to the method:
The HIV protease screening assay is based on fluorescently labeled substrate which can be resolved from nonlabeled cleavage product using special beads coated with streptavidin. The substrate is biotinylated at the amino terminal arginine and fluorescently labeled with fluorescein isothiocynate (FITC) at the carboxyl terminal lysine. This assay has been employed to detect novel, nonpeptidic inhibitors of HIV-1 protease. Substrate (20 μM of 0.2 μM), sample (10 μl of desired concentraion), and enzyme (10 μl of 0.1 μM) are added to a 96 well pandex plate. The assay is run in 0.1 M sodium acetate buffer at pH 5.5 in the presence of 1.0 M sodium chloride and 0.05% NP-40 with incubated in the dark for one hour at room temperature. Strepavidin coated polystyrene beads {40 μl of 0.1% (w/v)} are added and the plate is incubated in the dark for an additional half hour. The labeled cleavage product is separated from the unreacted substrate via filtration and is read on the Idexx screen machine. The data are analyzed by appropriate computer algorithms to ascertain percent inhibition values.

Where [3] appears, read: Table I, read-out: HIV Protease FITC Assay Ki.
The mark [4] stands for this setting: read-out: HIV Protease FITC Assay Ki.

“And” between values parts separate entries of the source, which are not always exact repeats. Equal entries are not always repeated. Where two headings read alike, the source gives them in different places.

For “4-Pyridylsulfonamide, N-[4-[cyclopropyl(5,6,7,8,9,10-hexahydro-4-hydroxy-2-oxo-2H-cycloocta[b]pyran-3-yl)methyl]phenyl]- [Example 240]”, at HIV-1 protease [1] (setting [3]), the Ki stood at 1.3 nM. Besides, the “PROTEASE % INHIB.” value on HIV-1 protease [2] (Table I, Dose 0.123 μM) came out at 96.32%; at HIV-1 protease [2] (Table I, Dose 0.370 μM), 100.98%; at HIV-1 protease [2] (Table I, Dose 1.100 μM) it was 102.71%; at HIV-1 protease [2] (Table I, Dose 3.300 μM), 101.88%; on HIV-1 protease [2] (Table I, Dose 10.900 μM), 104.28%; on HIV-1 protease [2] (Table I, Dose 30.000 μM), 107.17%.

On to `Cn1cnc(S(=O)(=O)Nc2cccc(C(c3c(O)cc(C(CC4CC4)CC4CC4)oc3=O)C3CC3)c2)c1` (stereo not shown) [98 First Compound], for which the Ki on HIV-1 protease [1] (setting [4]) is 0.74 nM and 0.8 nM.

Consider `Cn1cnc(S(=O)(=O)Nc2cccc(C(c3c(O)cc(C(CC4CC4)CC4CC4)oc3=O)C3CC3)c2)c1` (stereo not shown) [98 Second Compound], for which the Ki on HIV-1 protease [1] (setting [4]) is 0.84 nM and 0.8 nM.

For `CCC(C1=C(O)CC(CCC2CC2)(CCC2CC2)OC1=O)c1cccc(NS(=O)(=O)c2cn(C)cn2)c1` (stereo not shown) [Example 246, N-[3-(1-[6,6-Bis-(2-cyclopropyl-ethyl)-5,6-dihydro-4-hydroxy-2-oxo-2H-pyran-3-yl]propyl)phenyl]-1-methyl-1H-imidazole-4-sulfonamide], the Ki at HIV-1 protease [1] (setting [3]) is 1.7 nM.

With `CCC(C1=C(O)CC(CCC2CC2)(CCC2CC2)OC1=O)c1cccc(NS(=O)(=O)c2ccc(C#N)cn2)c1` (stereo not shown) [Example 247, N-[3-(1-[6,6-Bis-(2-cyclopropyl-ethyl)-5,6-dihydro-4-hydroxy-2-oxo-2H-pyran-3-yl]propyl)phenyl]-5-cyano-2-pyridinesulfonamide], at HIV-1 protease [1] (setting [3]), the Ki worked out at 1.2 nM.

As for `CCC(C1=C(O)CC(CC)(c2cccc(NS(=O)(=O)c3cn(C)cn3)c2)OC1=O)c1cccc(NS(=O)(=O)c2cn(C)cn2)c1` (stereo not shown) [Example 248, N-(3-[1-(6-Ethyl-5,6-dihydro-4-hydroxy-6-[3-([(1-methyl-1H-imidazol-4-yl)sulfonyl]amino)phenyl]-2-2H-pyran-3-yl)propyl]phenyl)-1-methyl-1H-imidazole-4-sulfonamide], on HIV-1 protease [1] (setting [3]), the inhibition constant Ki was 4.7 nM.

For `CCC(C1=C(O)CC(CC)(c2cccc(NS(=O)(=O)c3ccc(C#N)cn3)c2)OC1=O)c1cccc(NS(=O)(=O)c2ccc(C#N)cn2)c1` (stereo not shown) [Example 249, 5-Cyano-N-(3-[1-(6-[3-([(5-cyano-2-pyridinyl)sulfonyl]amino)phenyl]-6-ethyl-5,6-dihydro-4-hydroxy-2-oxo-2H-pyran-3-yl)propyl]phenyl)-2-pyridinesulfonamide], the inhibitory constant (Ki) at HIV-1 protease [1] (setting [4]) was determined as 0.75 nM.

As for `CCCC1(CCc2ccc(F)cc2)CC(O)=C(C(CC)c2cccc(NS(=O)(=O)c3cn(C)cn3)c2)C(=O)O1` (stereo not shown) [Example 254, N-[3-{1-(4-Hydroxy-5,6-dihydro-2-oxo-6-(2-(4-fluorophenyl)ethyl)-6-propyl-2H-pyran-3-yl)propyl}phenyl]-1-methyl-1H-imidazole-4-sulfonamide], the Ki at HIV-1 protease [1] (setting [4]) worked out at 3 nM.

As to `CCCC1(CCc2ccc(F)cc2)CC(O)=C(C(CC)c2cccc(NS(=O)(=O)c3ccc(C#N)cn3)c2)C(=O)O1` (stereo not shown) [Example 255, N-[3-{1-(4-Hydroxy-5,6-dihydro-2-oxo-6-(2-(4-fluorophenyl)ethyl)-6-propyl-2H-pyran-3-yl)propyl}phenyl]-5-cyanopyridine-2-sulfonamide], the Ki at HIV-1 protease [1] (setting [3]) worked out at 1.6 nM.

On to `Cn1cnc(S(=O)(=O)Nc2cccc(C(C3=C(O)CC(CCc4ccc(F)cc4)(CCc4ccc(F)cc4)OC3=O)C(C)(C)C)c2)c1` (stereo not shown) [Example 256, N-[3-{1-(4-Hydroxy-5,6-dihydro-2-oxo-6,6-bis(2-(4-fluorophenyl)ethyl)-2H-pyran-3-yl)-2,2-dimethylpropyl}phenyl]-1-methyl-1H-imidazole-4-sulfonamide], for which, on HIV-1 protease [1] (setting [3]), the inhibition constant (Ki) amounted to 8.3 nM.

Take `CC(C)(C)C(C1=C(O)CC(CCc2ccc(F)cc2)(CCc2ccc(F)cc2)OC1=O)c1cccc(NS(=O)(=O)c2ccc(C#N)cn2)c1` (stereo not shown) [Example 257, N-[3-{1-(4-Hydroxy-5,6-dihydro-2-oxo-6,6-bis(2-(4-fluorophenyl)ethyl)-2H-pyran-3-yl)-2,2-dimethylpropyl}phenyl]-5-cyanopyridine-2-sulfonamide]: the inhibition constant Ki on HIV-1 protease [1] (setting [3]) amounted to 9 nM.

On to `CCC(C1=C(O)CC(CCc2ccc(F)cc2)(CCc2ccc(F)cc2)OC1=O)c1cccc(NS(=O)(=O)c2cn(C)cn2)c1` (stereo not shown) [Example 258, N-[3-{1-(4-Hydroxy-5,6-dihydro-2-oxo-6,6-bis(2-(4-fluorophenyl)ethyl)-2H-pyran-3-yl)propyl}phenyl]-1-methyl-1H-imidazole-4-sulfonamide], for which the Ki on HIV-1 protease [1] (setting [3]) is 4.3 nM.

With `CCC(C1=C(O)CC(CCc2ccc(F)cc2)(CCc2ccc(F)cc2)OC1=O)c1cccc(NS(=O)(=O)c2ccc(C#N)cn2)c1` (stereo not shown) [Example 259, N-[3-{1-(4-Hydroxy-5,6-dihydro-2-oxo-6,6-bis(2-(4-fluorophenyl)ethyl)-2H-pyran-3-yl)propyl}phenyl]-5-cyanopyridine-2-sulfonamide], the Ki on HIV-1 protease [1] (setting [3]) was determined as 2.2 nM.

For `CCCC1(CCC)CC(O)=C(C(c2cccc(NS(=O)(=O)c3ccc(C#N)cn3)c2)C(C)(C)C)C(=O)O1` (stereo not shown) [Example 260, N-[3-{1-(4-Hydroxy-5,6-dihydro-2-oxo-6,6-dipropyl-2H-pyran-3-yl)-2,2-dimethylpropyl}phenyl]-5-cyanopyridine-2-sulfonamide], at HIV-1 protease [1] (setting [3]), the Ki was determined as 2 nM.

With `CCCC1(CCC)CC(O)=C(C(c2cccc(NS(=O)(=O)c3cn(C)cn3)c2)C(C)(C)C)C(=O)O1` (stereo not shown) [Example 261, N-[3-{1-(4-Hydroxy-5,6-dihydro-2-oxo-6,6-dipropyl-2H-pyran-3-yl)-2,2-dimethylpropyl}phenyl]-1-methyl-1H-imidazole-4-sulfonamide], on HIV-1 protease [1] (setting [3]), the inhibition constant Ki is 0.87 nM.

With `CCCC1(CCC)CC(O)=C(C(CC)c2cccc(NS(=O)(=O)c3ccc(C#N)cn3)c2)C(=O)O1` (stereo not shown) [Example 262], the inhibition at 0.123 µM on HIV-1 protease [2] (Table I, Dose 0.123 μM) stood at 91.8%. In addition, the inhibition at 0.37 µM at HIV-1 protease [2] (Table I, Dose 0.370 μM) was 96.6%. The inhibition at 1.1 µM at HIV-1 protease [2] (Table I, Dose 1.100 μM) is 97.1%. Moreover, the inhibition at 3.3 µM at HIV-1 protease [2] (Table I, Dose 3.300 μM) came out at 95.4%. Further, on HIV-1 protease [2] (Table I, Dose 10.000 μM), the inhibition at 10 µM amounted to 94.2%. The inhibition at 30 µM on HIV-1 protease [2] (Table I, Dose 30.000 μM) was 89.2%.

As for `CCCC1(CCc2ccccc2)CC(O)=C(C(CC)c2cccc(NS(=O)(=O)c3ccc(C#N)cn3)c2)C(=O)O1` (stereo not shown) [Example 263, N-[3-{1-(4-Hydroxy-5,6-dihydro-2-oxo-6-phenethyl-6-propyl-2H-pyran-3-yl)propyl}phenyl]-5-cyanopyridine-2-sulfonamide], on HIV-1 protease [2], the inhibition at 0.123 µM was 98.1%, the inhibition at 0.37 µM amounted to 99%, the inhibition at 1.1 µM stood at 99.1% and the inhibition at 3.3 µM came out at 98.1%. Besides, at HIV-1 protease [2], the inhibition at 10 µM was 96.2% and the inhibition at 30 µM turned out to be 88.2%.

Regarding `CCCC1(CCc2ccccc2)CC(O)=C(C(c2cccc(NS(=O)(=O)c3ccc(C#N)cn3)c2)C2CC2)C(=O)O1` (stereo not shown) [Example 311], the “PROTEASE % INHIB.” value on HIV-1 protease [2] (Table II, enzyme HIV-1, DOSE 0.123 (unit not given)) stood at 86.51%; at HIV-1 protease [2] (Table II, enzyme HIV-1, DOSE 0.370 (unit not given)), 91.49%; on HIV-1 protease [2] (Table II, enzyme HIV-1, DOSE 1.100 (unit not given)), 101.8%; on HIV-1 protease [2] (Table II, enzyme HIV-1, DOSE 3.300 (unit not given)), 96.5%; on HIV-1 protease [2] (Table II, enzyme HIV-1, DOSE 10.000 (unit not given)) it was 93.77%; at HIV-1 protease [2] (Table II, enzyme HIV-1, DOSE 30.000 (unit not given)), 77.63%.

In the case of `CCC(C1=C(O)C2CCCCC2OC1=O)c1cccc(NS(=O)(=O)c2ccc(C#N)cc2)c1` (stereo not shown) [Example 371], the inhibition constant Ki on HIV-1 protease [1] (read-out: FITC KI) was found to be 15.4 nM.

Source of the values: patent US6169181A, “Compounds useful to treat retroviral infections” (Pharmacia & Upjohn Company, priority 1998, dated 2001).
